Measurements taken from ChEMBL document CHEMBL1201862, “PubChem BioAssay data set” (2004).
Blank lines part the entries; values can stand above or below the compound they belong to. Calls of active or inactive are those of the source.

Tests used:
Cytochrome P450 2C9 = Cytochrome P450 2C9 (Homo sapiens, UniProt P11712)
HEK293 [1] = assay: EBV LMP1 TES2 canonical NF-kB signalling blockers – cell-based, HEK293, luciferase, cherry-pick, dose response (AID 588343); type: functional; details: Homo sapiens
[2] = NIH3T3 cell viability loss – ATP luminescence, mouse fibroblasts, counter-screen, dose response (AID 2010); type: functional, cell-based;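 note: cells exposed to compound for about 90 hours before reading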
[3] = Trypanosoma cruzi growth suppression in host cells – NIH3T3 host cells, beta-gal luminescence, confirmation (AID 2044); type: functional, cell-based;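 note: intracellular parasites grown in NIH/3T3 mouse fibroblasts as host cells; luminescent beta-galactosidase reporter signal from transgenic T. cruzi replicating inside host cells; inhibitors lower the luminescence signal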
Cytochrome P450 2C19 = Cytochrome P450 2C19 (Homo sapiens, UniProt P33261); assay: Cytochrome panel assay with activity outcomes. Panel member name: p450-cyp2c19 Compounds with AC50 equal or less than 10 uM are considered active; type: functional
Chain of Cytochrome P450 2C19 (P33261 whole entry): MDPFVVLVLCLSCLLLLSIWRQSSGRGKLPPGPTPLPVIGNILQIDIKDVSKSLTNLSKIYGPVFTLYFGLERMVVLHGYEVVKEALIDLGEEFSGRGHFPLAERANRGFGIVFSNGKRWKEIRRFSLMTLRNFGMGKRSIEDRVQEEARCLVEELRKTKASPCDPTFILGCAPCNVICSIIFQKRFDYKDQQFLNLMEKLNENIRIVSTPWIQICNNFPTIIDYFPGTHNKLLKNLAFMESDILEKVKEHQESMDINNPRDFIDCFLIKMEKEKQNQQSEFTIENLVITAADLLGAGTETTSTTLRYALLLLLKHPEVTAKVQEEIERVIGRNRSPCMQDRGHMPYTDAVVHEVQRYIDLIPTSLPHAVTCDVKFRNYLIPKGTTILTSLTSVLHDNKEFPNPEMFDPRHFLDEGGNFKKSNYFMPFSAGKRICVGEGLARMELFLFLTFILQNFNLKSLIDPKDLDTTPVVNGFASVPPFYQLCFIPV

HEK293 [4] = assay: inhibition of NOD1-driven NF-kB reporter – cell-based, luminescence, uHTS, primary screen (AID 1578); type: functional; details: Homo sapiens
HEK293 [5] = assay: cells; type: functional, cell-based; details: Homo sapiens
[6] = biological target: Nucleotide-binding oligomerization domain-containing protein 2 (Homo sapiens, UniProt Q9HC29); assay: inhibition of NOD2-driven NF-kB reporter – cell-based, luminescence, uHTS, HEK293 (AID 1566); type: functional
Chain of Nucleotide-binding oligomerization domain-containing protein 2 (Q9HC29 whole entry, the tested form may be a part): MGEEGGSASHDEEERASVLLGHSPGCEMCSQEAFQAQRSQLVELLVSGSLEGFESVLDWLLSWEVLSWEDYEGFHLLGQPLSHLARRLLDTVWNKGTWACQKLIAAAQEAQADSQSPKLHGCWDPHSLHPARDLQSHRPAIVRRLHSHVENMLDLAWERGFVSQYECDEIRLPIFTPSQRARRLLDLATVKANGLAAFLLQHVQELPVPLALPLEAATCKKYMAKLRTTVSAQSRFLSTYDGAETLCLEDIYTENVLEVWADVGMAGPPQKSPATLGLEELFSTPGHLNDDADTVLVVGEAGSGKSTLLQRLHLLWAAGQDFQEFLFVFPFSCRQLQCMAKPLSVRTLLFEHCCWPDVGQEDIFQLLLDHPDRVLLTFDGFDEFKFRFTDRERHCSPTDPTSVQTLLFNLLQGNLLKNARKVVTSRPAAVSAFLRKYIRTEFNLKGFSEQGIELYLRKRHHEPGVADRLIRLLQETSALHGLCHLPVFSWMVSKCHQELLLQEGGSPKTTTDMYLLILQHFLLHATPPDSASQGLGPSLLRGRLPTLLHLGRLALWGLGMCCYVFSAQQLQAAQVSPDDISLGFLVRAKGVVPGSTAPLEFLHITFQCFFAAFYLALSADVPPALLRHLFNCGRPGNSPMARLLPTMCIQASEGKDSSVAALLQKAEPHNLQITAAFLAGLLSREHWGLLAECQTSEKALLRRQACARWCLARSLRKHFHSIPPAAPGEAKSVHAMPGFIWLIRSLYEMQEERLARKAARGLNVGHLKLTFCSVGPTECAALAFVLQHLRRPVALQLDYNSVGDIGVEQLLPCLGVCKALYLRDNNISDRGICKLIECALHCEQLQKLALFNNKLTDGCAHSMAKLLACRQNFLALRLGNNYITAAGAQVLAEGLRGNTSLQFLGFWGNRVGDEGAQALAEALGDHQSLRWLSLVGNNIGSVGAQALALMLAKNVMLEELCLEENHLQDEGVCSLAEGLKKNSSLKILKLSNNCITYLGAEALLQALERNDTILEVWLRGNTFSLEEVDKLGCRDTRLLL

HEK293 [7] = assay: cells; type: functional, cell-based; details: Homo sapiens; remark: listed apart in the source
HEK293 [8] = assay: NOD2 signaling inhibitors in MDP-stimulated cells, cell-based, uHTS, luminescence (AID 2001); type: functional; details: Homo sapiens
HEK293 [9] = assay: cells; type: functional, cell-based; details: Homo sapiens; remark: listed apart in the source
[10] = Luminescence Cell-Based Dose Retest to Confirm Inhibitors of Cancer Stem Cells. [Related pubchem assays (depositor defined):AID2717, AID2721]; type: functional, Homo sapiens; details: Homo sapiens
Cytochrome P450 2D6 = Cytochrome P450 2D6 (Homo sapiens, UniProt P10635);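 note: CYP2D6 member of a cytochrome P450 panel assay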
Chain of Cytochrome P450 2D6 (P10635 whole entry): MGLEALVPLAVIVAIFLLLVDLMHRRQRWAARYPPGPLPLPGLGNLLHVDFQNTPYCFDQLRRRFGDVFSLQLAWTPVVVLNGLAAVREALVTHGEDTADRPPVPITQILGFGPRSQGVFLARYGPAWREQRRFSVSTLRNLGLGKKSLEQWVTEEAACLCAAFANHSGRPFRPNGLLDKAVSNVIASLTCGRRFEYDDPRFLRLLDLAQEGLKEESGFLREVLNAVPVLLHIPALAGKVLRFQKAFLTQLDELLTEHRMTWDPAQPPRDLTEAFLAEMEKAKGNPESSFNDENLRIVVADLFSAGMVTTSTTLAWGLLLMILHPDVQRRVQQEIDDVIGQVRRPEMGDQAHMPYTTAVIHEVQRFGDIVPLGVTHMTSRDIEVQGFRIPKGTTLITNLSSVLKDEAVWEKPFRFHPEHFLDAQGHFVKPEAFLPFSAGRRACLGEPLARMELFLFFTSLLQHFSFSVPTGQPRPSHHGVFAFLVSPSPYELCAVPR

Cytochrome P450 3A4 = Cytochrome P450 3A4 (Homo sapiens, UniProt P08684);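 note: CYP3A4 tested as one member of a cytochrome P450 panel screen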
Chain of Cytochrome P450 3A4 (P08684 whole entry): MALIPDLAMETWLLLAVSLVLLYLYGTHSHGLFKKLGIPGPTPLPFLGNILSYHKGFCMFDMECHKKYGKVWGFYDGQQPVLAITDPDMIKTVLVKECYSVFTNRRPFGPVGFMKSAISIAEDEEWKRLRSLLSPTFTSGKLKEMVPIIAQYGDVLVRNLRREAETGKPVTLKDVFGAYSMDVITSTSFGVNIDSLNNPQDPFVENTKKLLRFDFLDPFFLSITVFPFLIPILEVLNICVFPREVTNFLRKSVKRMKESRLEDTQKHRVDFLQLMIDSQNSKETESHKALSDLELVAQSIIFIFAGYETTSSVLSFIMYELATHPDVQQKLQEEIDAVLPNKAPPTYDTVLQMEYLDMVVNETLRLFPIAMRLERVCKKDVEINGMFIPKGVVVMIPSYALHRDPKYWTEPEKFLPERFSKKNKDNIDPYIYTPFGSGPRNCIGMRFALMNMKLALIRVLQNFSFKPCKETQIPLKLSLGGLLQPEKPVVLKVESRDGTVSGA

[11] = biological target: T1, Heat shock factor protein 1 (Mus musculus, UniProt P38532); assay: enhancement of HSF1-driven luciferase signal – cell-based, NIH3T3, luminescence, dose retest, confirmation (AID 435004); type: functional;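 note: stress induced by proteasome inhibitor MG132 added 30 min after compound; luciferase reporter driven by HSF1 response element in NIH3T3 cells; actives raise luminescence as potentiators of the MG132 stress response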
T1 sequence (P38532 whole entry): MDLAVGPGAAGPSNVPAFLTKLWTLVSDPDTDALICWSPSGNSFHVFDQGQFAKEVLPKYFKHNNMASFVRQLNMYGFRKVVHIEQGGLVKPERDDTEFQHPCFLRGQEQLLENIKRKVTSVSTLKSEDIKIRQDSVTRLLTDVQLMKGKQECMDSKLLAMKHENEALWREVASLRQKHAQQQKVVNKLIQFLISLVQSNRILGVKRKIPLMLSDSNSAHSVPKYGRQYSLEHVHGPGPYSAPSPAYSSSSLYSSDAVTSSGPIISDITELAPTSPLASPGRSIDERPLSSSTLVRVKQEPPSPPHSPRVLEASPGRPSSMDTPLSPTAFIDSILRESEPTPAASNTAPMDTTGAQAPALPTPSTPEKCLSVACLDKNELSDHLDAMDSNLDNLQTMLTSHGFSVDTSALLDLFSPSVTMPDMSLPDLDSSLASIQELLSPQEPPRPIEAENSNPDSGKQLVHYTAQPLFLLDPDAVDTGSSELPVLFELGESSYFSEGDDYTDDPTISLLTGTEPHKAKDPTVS

[12] = biological target: T2, Corticotropin-releasing factor receptor 2/Corticotropin-releasing factor-binding protein (Homo sapiens, UniProt P24387+Q13324); assay: Dose Response confirmation of uHTS hits for small molecule antagonists of the CRF-binding protein and CRF-R2 receptor complex.; type: functional; details: read-out: IC50_Mean
T2 sequence (Q13324 whole entry): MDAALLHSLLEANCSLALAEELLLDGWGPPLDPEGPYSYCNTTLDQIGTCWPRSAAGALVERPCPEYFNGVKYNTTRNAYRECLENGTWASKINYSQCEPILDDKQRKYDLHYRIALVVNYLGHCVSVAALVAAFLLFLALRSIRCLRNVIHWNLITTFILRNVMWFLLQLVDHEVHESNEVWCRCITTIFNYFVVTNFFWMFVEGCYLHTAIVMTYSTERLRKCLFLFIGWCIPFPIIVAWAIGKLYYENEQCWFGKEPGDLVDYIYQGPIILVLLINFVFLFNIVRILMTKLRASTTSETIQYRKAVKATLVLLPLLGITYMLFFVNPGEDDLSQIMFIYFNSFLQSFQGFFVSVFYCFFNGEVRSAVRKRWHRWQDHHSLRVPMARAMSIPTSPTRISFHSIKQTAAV
T2 sequence (P24387 whole entry): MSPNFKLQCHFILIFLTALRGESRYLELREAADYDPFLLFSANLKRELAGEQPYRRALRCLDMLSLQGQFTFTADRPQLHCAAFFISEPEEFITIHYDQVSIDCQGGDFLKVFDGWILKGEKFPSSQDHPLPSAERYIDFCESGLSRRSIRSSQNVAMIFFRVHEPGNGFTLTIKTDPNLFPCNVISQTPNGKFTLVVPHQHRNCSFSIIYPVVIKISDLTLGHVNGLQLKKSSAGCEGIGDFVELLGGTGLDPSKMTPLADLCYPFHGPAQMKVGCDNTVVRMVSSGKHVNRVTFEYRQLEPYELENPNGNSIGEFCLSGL

[13] = viability of PTEN-deleted HCT116 cells – cell-based, HCT116 PTEN knockout, dose response (AID 1047); type: functional;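 note: HCT116 colon tumor cells with PTEN knocked out; cells exposed to compound for 60 hours before readout; potency for loss of cell viability measured by luminescence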
[14] = viability of HCT116 lacking mutant beta-catenin – cell-based, human colon tumor, dose response (AID 1045); type: functional;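 note: HCT116 colon tumor cells with beta catenin knocked out; cells exposed to compound for 60 hours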
[15] = biological target: G-protein coupled receptor 55 (Homo sapiens, UniProt Q9Y2T6); assay: inhibition of LPI-stimulated GPR55 beta-arrestin translocation – imaging, U2OS, beta-arrestin-GFP, LPI agonist, primary screen (AID 2013); type: functional;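 note: antagonist potency measured as reduced agonist-driven arrestin aggregation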
Chain of G-protein coupled receptor 55 (Q9Y2T6 whole entry): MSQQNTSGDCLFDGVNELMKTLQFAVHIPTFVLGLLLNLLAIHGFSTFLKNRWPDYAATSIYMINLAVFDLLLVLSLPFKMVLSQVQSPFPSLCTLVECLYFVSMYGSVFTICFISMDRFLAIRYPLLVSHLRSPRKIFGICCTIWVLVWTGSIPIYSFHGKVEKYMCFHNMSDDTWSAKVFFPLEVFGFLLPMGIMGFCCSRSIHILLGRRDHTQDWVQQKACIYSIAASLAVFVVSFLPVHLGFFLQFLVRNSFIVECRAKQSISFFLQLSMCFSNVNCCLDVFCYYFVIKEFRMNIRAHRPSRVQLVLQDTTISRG

[16] = biological target: T2, Corticotropin-releasing factor receptor 2/Corticotropin-releasing factor-binding protein; assay: activators of CRF receptor 2 with binding protein – uHTS hits, confirmation (AID 602473); type: functional; details: read-out: EC50_Mean
Protein skinhead-1 = biological target: T3, Protein skinhead-1 (Caenorhabditis elegans, UniProt P34707); type: functional
T3 sequence (P34707 whole entry): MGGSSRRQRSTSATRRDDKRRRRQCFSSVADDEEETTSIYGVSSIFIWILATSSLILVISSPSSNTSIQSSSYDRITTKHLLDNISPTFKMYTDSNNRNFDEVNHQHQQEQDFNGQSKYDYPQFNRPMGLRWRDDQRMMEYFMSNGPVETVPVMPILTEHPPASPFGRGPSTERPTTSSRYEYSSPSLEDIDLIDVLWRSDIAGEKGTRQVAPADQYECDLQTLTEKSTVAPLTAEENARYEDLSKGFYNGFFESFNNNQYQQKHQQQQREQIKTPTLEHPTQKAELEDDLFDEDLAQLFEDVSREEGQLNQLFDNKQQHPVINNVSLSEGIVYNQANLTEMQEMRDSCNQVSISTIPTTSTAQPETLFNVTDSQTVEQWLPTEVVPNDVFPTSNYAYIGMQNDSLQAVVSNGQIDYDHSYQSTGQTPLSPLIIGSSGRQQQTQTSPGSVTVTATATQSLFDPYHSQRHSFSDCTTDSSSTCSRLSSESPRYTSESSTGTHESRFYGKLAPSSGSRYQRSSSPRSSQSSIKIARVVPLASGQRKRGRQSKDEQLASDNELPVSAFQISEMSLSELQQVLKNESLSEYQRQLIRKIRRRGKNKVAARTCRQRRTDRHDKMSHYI

Paired box protein Pax-8 = Paired box protein Pax-8 (Homo sapiens, UniProt Q06710); assay: PAX8 transcriptional activity inhibition in RMG-I – RMG-I cells, luciferase, cherry-pick, dose response (AID 687027); type: functional, cell-based;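 note: luciferase reporter driven by Pax8 target thyroperoxidase promoter measured by SteadyGlo luminescence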
Chain of Paired box protein Pax-8 (Q06710 whole entry): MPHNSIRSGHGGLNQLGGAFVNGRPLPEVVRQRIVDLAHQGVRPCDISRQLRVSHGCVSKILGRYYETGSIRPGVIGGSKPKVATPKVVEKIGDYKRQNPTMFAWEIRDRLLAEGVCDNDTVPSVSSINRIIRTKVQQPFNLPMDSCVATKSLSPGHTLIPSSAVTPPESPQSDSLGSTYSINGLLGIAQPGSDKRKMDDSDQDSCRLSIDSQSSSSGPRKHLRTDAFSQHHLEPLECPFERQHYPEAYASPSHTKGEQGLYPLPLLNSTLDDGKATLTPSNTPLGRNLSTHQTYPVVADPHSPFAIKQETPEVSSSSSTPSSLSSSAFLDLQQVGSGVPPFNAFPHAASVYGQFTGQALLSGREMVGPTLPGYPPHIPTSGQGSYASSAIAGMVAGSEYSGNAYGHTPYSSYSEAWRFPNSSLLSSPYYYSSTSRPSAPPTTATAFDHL

Chain of Cytochrome P450 2C9 (P11712 whole entry): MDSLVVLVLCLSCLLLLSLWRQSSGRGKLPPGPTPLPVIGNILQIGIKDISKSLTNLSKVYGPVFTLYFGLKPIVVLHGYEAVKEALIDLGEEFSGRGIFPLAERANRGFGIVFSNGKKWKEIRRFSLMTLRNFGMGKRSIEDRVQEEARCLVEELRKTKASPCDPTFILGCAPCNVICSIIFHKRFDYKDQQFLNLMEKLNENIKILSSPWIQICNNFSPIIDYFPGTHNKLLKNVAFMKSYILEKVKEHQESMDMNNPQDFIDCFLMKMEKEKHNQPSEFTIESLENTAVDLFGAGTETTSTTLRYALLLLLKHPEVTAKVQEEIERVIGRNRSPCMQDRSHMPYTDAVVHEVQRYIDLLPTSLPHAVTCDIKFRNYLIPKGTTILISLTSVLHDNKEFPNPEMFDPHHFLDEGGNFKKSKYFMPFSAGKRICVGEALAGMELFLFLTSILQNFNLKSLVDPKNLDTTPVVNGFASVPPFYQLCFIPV

Structure (SMILES): O=[N+]([O-])c1ccc(N2CCN(Cc3cccc([N+](=O)[O-])c3)CC2)cc1
AC50 (HEK293 [1]): 52.6 µM (active)

Structure (SMILES): O=C(Nc1ccc(Cl)c(Cl)c1)Nc1nc(-c2ccccc2)cs1
AC50 (HEK293 [1]): 24.9 µM (active) | EC50 [2]: > 60 µM (not active) | EC50 [3]: 1.52 µM (active)

Structure (SMILES): C#CCCCO/N=C1/[C@H]2O[C@@H]2[C@@H](O)[C@H]2[C@H]1CCn1c(=O)n(Cc3cc4c(cc3Cl)OCO4)c(=O)n12
AC50 (Cytochrome P450 2C9): inconclusive | AC50 (Cytochrome P450 2C19): inconclusive

Structure (SMILES): Cc1ccc(C(=O)NC(=C(Cl)Cl)S(=O)(=O)c2ccc(C)cc2)cc1
EC50 (HEK293 [4]): 2.46 µM (active) | IC50 (HEK293 [5]): > 20 µM (inactive) | EC50 [6]: 14.6 µM (active) | IC50 (HEK293 [7]): 6.28 µM (active) | IC50 (HEK293 [8]): 5.55 µM (active) | IC50 (HEK293 [9]): > 20 µM (inactive) | AC50 [10]: 4.39 µM (active)

Structure (SMILES): Cc1ccc(NC(=O)CSc2ncnc3ccccc23)cc1S(=O)(=O)N1CCCCC1
EC50 (HEK293 [4]): 4.43 µM (active) | IC50 (HEK293 [5]): 6.83 µM (active) | EC50 [6]: 4.73 µM (active) | IC50 (HEK293 [7]): 1.81 µM (active) | IC50 (HEK293 [8]): 1.73 µM (active) | IC50 (HEK293 [9]): > 20 µM (inactive)

Structure (SMILES): CCOC(=O)C(C)(C)N(Cc1ccc(C)cc1)S(=O)(=O)c1ccc(Cl)c([N+](=O)[O-])c1
EC50 [11]: 20.1 µM (active) | IC50 [12]: > 47.1 µM (inactive) | EC50 [13]: 17.7 µM (active) | EC50 [14]: 15.3 µM (active) | IC50 [15]: 3.61 µM (active) | EC50 [16]: > 53 µM (inactive)

Structure (SMILES): Cc1cc(Sc2nnc(N)s2)c2ccccc2n1
EC50 [11]: 14.6 µM (active) | AC50 (HEK293 [1]): 3.03 µM (active) | AC50 (Paired box protein Pax-8): 4.58 µM (active)

Continued, values first:

AC50 (Cytochrome P450 2C9): inconclusive
Structure (SMILES): Cc1ccc(CNC(=O)C2CC(c3ccccc3[N+](=O)[O-])=NO2)o1 (stereo not given)

AC50 (Cytochrome P450 2C9): inconclusive
Structure (SMILES): COc1cc(C)nc(N2CCCC(C(=O)Nc3cc(Cl)ccc3OC)C2)n1 (stereo not given)

AC50 (Cytochrome P450 2C9): inconclusive | AC50 (Cytochrome P450 2C19; read-out: AC50): 17.8 µM (inconclusive) | AC50 (Cytochrome P450 2D6): 7.94 µM (inconclusive) | AC50 (Cytochrome P450 3A4): 14.1 µM (inconclusive)
Structure (SMILES): O=C(NCCCN1CCOCC1)C1COc2ccccc2O1 (stereo not given)

AC50 (Cytochrome P450 2C9): inconclusive | AC50 (Cytochrome P450 3A4): 3.16 µM (inconclusive)
Structure (SMILES): O=C(c1cccc(C(F)(F)F)c1)N1CCC(O)(CS(=O)(=O)Cc2ccccc2)CC1

IC50 [15]: 3.44 µM (active) | IC50 (Protein skinhead-1): > 100 µM (inactive)
Structure (SMILES): CN1/C(=C/C(=O)CSc2ccccc2C(=O)O)C(C)(C)c2ccccc21

AC50 (Cytochrome P450 2C9): inconclusive | AC50 (Cytochrome P450 2D6): 15.8 µM (inconclusive)
Structure (SMILES): Nc1nc(-c2ccccc2)c(-c2ccccc2)s1
